Experimental data taken from patent publication US4283394A, “Cytotoxic nucleoside-corticosteroid phosphodiesters” (priority 1979, dated 1981).

Experiments:
[1] = system: crude wheat germ acid phosphatase; assay: Enzymatic cleavage by acid phosphatase; type: in vitro ADME; conditions: pH 4.8, 25° C., 24 h; for percent hydrolyzed by acid phosphatase: 3 mg enzyme
Procedure: (§1) Enzymatic cleavage of the phosphodiester bond of the conjugates was studied by incubating the conjugates (5 μmol) with various enzymes (1.5-3 mg) in appropriate buffer and with plasma (final volume 0.5 ml). An aliquot (200 μl) of the 24 h incubation mixtures was streaked on Whatman 3 MM paper (23×57 cm) with the authentic markers and the paper was developed in Solvent A. The bands were characterized and analyzed semi-quantitatively by UV estimation of the chromatographs. […] The conjugates also remained 60-85 percent intact during the incubation with baboon plasma at 37° C. for 24 h. From the results of these tests, conjugates of this type appear capable of serving as sustained release froms of the parent steroid and nucleoside components thereof.
The conjugate (5 μmol) was incubated with 0.15 M NaOAc, pH 4.8 (0.05 ml) and crude wheat germ acid phosphatase (3 mg., Sigma Chemical Co.) in 0.45 ml. of H2 O at 25° C. for 24 h. Pred-p-ara-C (I) was 86 percent hydrolyzed, the products being pred-p-ara-C (8 percent), ara-CMP (5 percent), ara-C (42 percent) and prednisolone (45 percent). Prednisone-p-ara-C (II) was 88 percent hydrolyzed, the products being prednisone-p-ara-C (7 percent), ara-CMP (4 percent), ara-C (43 percent) and prednisone (46 percent).

[2] = system: intracerebrally implanted L-1210; assay: Antitumor activity against intracerebrally (i.c.) implanted L-1210 in mice; type: in vivo; conditions: 50 mg/kg/day × 5 i.p.; for Survivors on day 35: groups of 8 mice; for Percent T/C: values as of 35th day
Procedure: Effects of the conjugate on i.c. implanted L-1210 in mice were also studied. A mouse (C3 D2 F1 /J, female, avg. wt. 20 g) was anesthesized with diethyl ether, the right parietal scalp was washed with 70 percent ethanol, a 27 G 1/2 needle with a guard placed on the outside of the barrel 1.5 mm from the top of the bevel, was inserted through the skull and 1×10^5 cells in 0.05 ml suspension were inoculated into the mouse. The conjugate in 0.9 percent NaCl (0.5 ml) was administered intraperitoneally once daily. Treatment began 24 h after implantation and continued for 5 consecutive days. Control animals received a 0.5 ml injection of saline. Testing was followed as described in the NCI protocol and evaluated by recording the survival time according to the formula appearing in protocol 11.

[3] = system: crude Crotalus adamenteus venom; type: in vitro ADME; conditions: 2.5 mg crude venom, 24 h, 37° C.
Procedure: as §1

[4] = system: 5'-nucleotidase from Crotalus adamenteus; assay: Enzymatic cleavage by 5'-nucleotidase; type: in vitro ADME; conditions: pH 9.0, 24 h, 37° C.; for hydrolysis by 5'-nucleotidase: 2 mg enzyme
Procedure: as §1
The conjugate (5 μmol) was incubated with 1 M Tris-HCl, pH 9.0 and 0.05 M MgSO4 (0.05 ml) and purified 5'-nucleotidase from Crotalus adamenteus (2 mg., Sigma Chemical Co.) in 0.45 ml. of H2 O for 24 h at 37° C.

[5] = system: i.p. implanted L-1210 leukemia; assay: Antitumor activity against i.p. implanted L-1210 leukemia in mice; type: in vivo; conditions: for response vs control in vivo at 25 mg/kg: read-out: Percent T/C (mean survival days treated/control × 100), 25 mg/kg/day × 5 i.p.; for response vs control in vivo at 50 mg/kg: read-out: Percent T/C (mean survival days treated/control × 100), 50 mg/kg/day × 5 i.p.; for response vs control in vivo at 75 mg/kg: read-out: Percent T/C (mean survival days treated/control × 100), 75 mg/kg/day × 5 i.p.; for response vs control in vivo at 100 mg/kg: read-out: Percent T/C (mean survival days treated/control × 100), 100 mg/kg/day × 5 i.p.; for ascitic fluid at the end of the dosage period (5th day) / day on which mice started to accumulate ascitic fluid: doses between 25 and 75 mg/kg/day
Procedure: The ascites cell form of L-1210 leukemia, grown in C3 D2 F1 /J female mice (supplied by Jackson Labs) were employed. The assay was performed according to National Cancer Institute (NCI) protocol 1.100 described by R. I. Gerau et al., Cancer Chemother. Rep. (Part 3) 3: (2): 7, 47 (1972) with a slight modification. Intraperitoneal implantation of 1×10^6 cells in 0.5-ml suspension to the control and the treated groups (each group comprised 8 C3 D2 F1 /J female mice, average wt 20 g) was carried out using donor mice (DBA/2Ha, supplied by Roswell Park Memorial Institute) bearing 3 day tumor growths. Compounds were dissolved in 0.9 percent NaCl and a 0.5 ml dose was administered intraperitoneally once daily. Treatment began 24 h after implantation and continued for 5 consecutive days. Control animals received a 0.5 ml injection of saline. Testing was followed as described in the NCI protocol and evaluated by recording the survival time according to the formula appearing in protocol 11.

[6] = system: i.p. implanted L1210 leukemia; assay: Comparison of conjugates and ara-C plus steroid combinations, i.p. implanted L1210 leukemic mice; type: in vivo
Procedure: Each mouse received 1×10^6 cells intraperitoneally. Doses were administered i.p. once daily to groups of 8 mice (avg. wt. 20 g) for 5 consecutive days beginning 24 hours after tumor implantation. In case of the combination, ara-C and the steroid were given at the same molar concentrations present in the conjugates. Mean survival days were calculated by the equation appearing in the NCI protocol; T/C ratios are reported in percent, i.e (treated/control)×100.

[7] = Incubation with fresh baboon plasma; type: in vitro ADME; conditions: 37° C.; for metabolised at 24 h: 0.5 ml fresh baboon plasma, read-out: percent hydrolyzed in plasma; for remaining at 24 h: read-out: remaining conjugate among products
Procedure: as §1
The conjugate (5 μmol) was incubated with 0.5 ml of fresh baboon plasma at 37° C. for 24 h. 39 percent of the pred-p-ara-C (I) was hydrolyzed, the products being pred-p-ara-C (44 percent), ara-UMP (7 percent), ara-U (21 percent) and prednisolone (28 percent). Only 15 percent of the prednisone-p-ara-C (II) was hydrolyzed, the products being prednisone-p-ara-C (74 percent), ara-UMP (13 percent) and prednisone (13 percent).

| Compound | percent hydrolyzed by acid phosphatase [1] [%] | product ara-C [1] [%] | product ara-CMP [1] [%] | product steroid (prednisolone or prednisone) [1] [%] | remaining conjugate among products [1] [%] | Mean Survival Days [2] [days] | body weight lost by day 11 [2] | Survivors on day 35 [2] | Percent T/C [2] [%] | hydrolysis by crude snake venom [3] | product ara-C [3] [%] | product steroid [3] [%] | hydrolysis by 5'-nucleotidase [4] | product ara-C [4] [%] | product prednisolone or prednisone [4] [%] | Mean Survival Days, Treated ([5]; 25 mg/kg/day × 5 i.p.) [days] | Percent T/C (mean survival days treated/control × 100) ([5]; 25 mg/kg/day × 5 i.p.) [%] | Mean Survival Days, Treated ([5]; 50 mg/kg/day × 5 i.p.) [days] | Mean Survival Days, Treated ([5]; 75 mg/kg/day × 5 i.p.) [days] | Mean Survival Days, Treated ([5]; 100 mg/kg/day × 5 i.p.) [days] | also measured |
| --- | --- | --- | --- | --- | --- | --- | --- | --- | --- | --- | --- | --- | --- | --- | --- | --- | --- | --- | --- | --- | --- |
| C[C@]12C=CC(=O)C=C1CC[C@@H]1[C@@H]2[C@@H](O)C[C@@]2(C)[C@H]1CC[C@]2(O)C(=O)CO[P+]([O-])(O)OC[C@H]1O[C@@H](n2ccc(N)nc2=O)[C@@H](O)[C@@H]1O (stereo partly drawn) [Pred-p-ara-C (I), 5'-(Prednisolone-21-phosphoryl)-1-β-D-arabinofuranosylcytosine] | 86 | 42 | 5 | 45 | 8 | 18.13 | about 4 g | 1 | 201.4 | hydrolyzed completely | 50 | 50 | hydrolyzed completely | 50 | 50 | 14.63 | 154 | 19.13 | 16.88 | 11.74 | weight gained over original weight (20 g) by day 20 [2]: about 1 g; Percent T/C ([2]; listed as I): 201%; Mean Survival Days, Treated ([5]; 40 mg/kg/day × 5 i.p.): 15.25 days; response vs control in vivo at 25 mg/kg ([5]; Mus musculus, L1210, ip): 154%; response vs control in vivo at 40 mg/kg ([5]; Mus musculus, L1210, ip, read-out: Percent T/C (mean survival days treated/control × 100), 40 mg/kg/day × 5 i.p.): 174%; response vs control in vivo at 50 mg/kg ([5]; Mus musculus, L1210, ip): 201%; response vs control in vivo at 75 mg/kg ([5]; Mus musculus, L1210, ip): 178%; response vs control in vivo at 100 mg/kg ([5]; Mus musculus, L1210, ip): 136%; ascitic fluid at the end of the dosage period (5th day) [5]: no ascitic fluid; day on which mice started to accumulate ascitic fluid [5]: 15 days; Survival Days Mean (Treated) ([6]; 75.0 μmole/kg/day × 5): 19.13 days; Weight change on Day 8 (g/mouse) ([6]; 75.0 μmole/kg/day × 5 (each, for combinations)): -0.28 g/mouse; T/C ([6]; 114.7 μmol/kg/day): 178%; response vs control in vivo at 75 µmol/kg ([6]; Mus musculus, L1210, ip, 75.0 μmole/kg/day × 5, read-out: % T/C): 201%; metabolised at 24 h [7]: 39%; product ara-U ([7]; baboon plasma, 24 h): 21%; product ara-UMP ([7]; baboon plasma, 24 h): 7%; product steroid (prednisolone or prednisone) ([7]; baboon plasma, 24 h): 28%; remaining at 24 h ([7]; baboon plasma): 44% |
| C[C@]12C=CC(=O)C=C1CC[C@@H]1[C@@H]2C(=O)C[C@@]2(C)[C@H]1CC[C@]2(O)C(=O)CO[P+]([O-])(O)OC[C@H]1O[C@@H](n2ccc(N)nc2=O)[C@@H](O)[C@@H]1O (stereo partly drawn) [Prednisone-p-ara-C (II), 5'-(Prednisone-21-phosphoryl)-1-β-D-arabinofuranosylcytosine] | 88 | 43 | 4 | 46 | 7 | 16.50 | about 4 g | 1 | 183.3 | hydrolyzed completely | 50 | 50 | hydrolyzed completely | 50 | 50 | 14.63 | 154 | 18.13 | 14.50 | 10.88 | Percent T/C ([2]; listed as II): 183%; Percent T/C (mean survival days treated/control × 100) ([5]; 50 mg/kg/day × 5 i.p.): 210%; Percent T/C (mean survival days treated/control × 100) ([5]; 100 mg/kg/day × 5 i.p.): 124%; Mean Survival Days, Treated ([5]; 200 mg/kg/day × 5 i.p.): 9.13 days; response vs control in vivo at 25 mg/kg ([5]; Mus musculus, L1210, ip): 154%; response vs control in vivo at 50 mg/kg ([5]; Mus musculus, L1210, ip): 210%; response vs control in vivo at 75 mg/kg ([5]; Mus musculus, L1210, ip): 153%; response vs control in vivo at 100 mg/kg ([5]; Mus musculus, L1210, ip): 124%; response vs control in vivo at 200 mg/kg ([5]; Mus musculus, L1210, ip, read-out: Percent T/C (mean survival days treated/control × 100), 200 mg/kg/day × 5 i.p.): 104%; ascitic fluid at the end of the dosage period (5th day) [5]: no ascitic fluid; day on which mice started to accumulate ascitic fluid [5]: 15 days; Survival Days Mean (Treated) ([6]; 75.4 μmole/kg/day × 5): 18.13 days; Weight change on Day 8 (g/mouse) ([6]; 75.4 μmole/kg/day × 5): -0.30 g/mouse; response vs control in vivo at 75.4 µmol/kg ([6]; Mus musculus, L1210, ip, 75.4 μmole/kg/day × 5, read-out: % T/C): 210%; metabolised at 24 h [7]: 15%; product ara-UMP ([7]; baboon plasma, 24 h): 13%; product steroid (prednisolone or prednisone) ([7]; baboon plasma, 24 h): 13%; remaining at 24 h ([7]; baboon plasma): 74% |
